Reference: publication PMC10714400, “Antimicrobial Peptide–Peptoid Hybrids with and without Membrane Disruption” (ACS Infectious Diseases, 2023)
Converted amounts (≈) assume the structure as drawn. Where a SMILES comes first, the peptide text is derived from it. [ ]: non-standard residue; d: D form. Nleu = CC(C)CNCC(=O)O; Nlys = NCCCCNCC(=O)O

Key:
[1] = system: A. baumannii ATCC19606
Description: (§1) Antimicrobial activity was assayed for all the peptide–peptoids against P. aeruginosa PAO1, K. pneumoniae NCTC418, E. coli W3110, A. baumannii ATCC 19606, methicillin-resistant S. aureus COL (MRSA), and for selected peptides on P. aeruginosa PA14 and the polymyxin-B-resistant derivatives PA14 4.13, PA14 4.18, PA14 2P4, as well as the clinical isolates ZEM-1A and ZEM9A, K. pneumoniae OXA-48, S. aureus Newman, Enterobacter cloacae, Stenotrophomonas maltophilia, Burkholderia cenocepacia, and Staphylococus epidermidis. To determine the Minimal Inhibitory Concentration (MIC), the Broth Microdilution method was used.[72] A colony of bacteria was picked and grown in LB medium overnight at 37 °C.
(§2) To each well was finally added 4 μL of the diluted bacterial suspension (see above), corresponding to approximately 5 × 10^5 CFU. For each test, two columns of the plate were kept for sterility control (medium only), growth control (medium with bacterial inoculum, no compound). The positive control, Polymyxin B (starting with a concentration of 16 μg/mL) in MH medium with bacterial inocula, was introduced in the two lines of the plate. The plates were incubated at 37 °C for ca. 18 h under static conditions. Next, 15 μL of 3-(4,5-dimethylthiazol-2-yl)-2,5-diphenyltetrazolium bromide (MTT)[73] (1 mg/mL in sterilized MilliQ deionized water) were added to each well, and the plates were incubated for 20–30 min at room temperature. The minimal inhibitory concentration (MIC) was defined as the lowest concentration of the compound that inhibits the visible growth of the tested bacteria (yellow) with the unaided eye.

[2] = system: K. pneumoniae NCTC418
Description: as §1, §2

[3] = system: E. coli W3110
Description: as §1, §2

[4] = system: PA14 4.18 (pmrB); settings: […] MH at pH 8.5
Description: as §1, §2

[5] = system: P. aeruginosa PAO1
Description: as §1, §2

[6] = system: PA14 4.13 (phoQ); settings: CSV; […] MH at pH 8.5
Description: as §1, §2

[7] = system: PA14 2P4 (pmrB); settings: CSV; […] MH at pH 8.5
Description: as §1, §2

[8] = system: S. aureus COL (MRSA)
Description: as §1, §2

[9] = system: P. aeruginosa PA14; settings: PA14, pH 8.5
Description: as §1
as §2, with “The plates were incubated at 37 °C for ca. 18 h under static conditions.” left out

[10] = system: S. aureus Newman; settings: Newman, 4 h, pH 8.5
Description: as §1
as §2, with “The plates were incubated at 37 °C for ca. 18 h under static conditions.” left out

[11] = Circular dichroism, α-helical content; format: physicochemical; settings: 0.1 mg/mL; for CD %α with 5 mM DPC: 10 mM phosphate buffer pH 7.4, 5 mM DPC; for CD %α with 20% TFE: 10 mM phosphate buffer pH 7.4, 20% TFE
[12] = system: human red blood cells (hRBC); test: Minimum hemolytic concentration (MHC); format: cell-based
Description: We also measured minimal hemolysis concentrations (MHC) on human red blood cells by serial 2-fold dilution as an indication of toxicity against eukaryotic cells (Table 1).

[13] = system: HEK293 cells; test: Cell viability assay by Alamar blue; settings: read-out: Toxicity on HEK293 cells; CSV
Description: The data are represented as the mean value ± SD, n = 3. […] (c) Vesicle leakage assay for a selection of compounds. Lipid vesicles made of EYPG or EYPC were suspended in a buffer (10 mM TRIS, 107 mM NaCl, pH 7.4). After 45 s, the indicated compound was added to reach the desired concentration. After 240 s, 30 μL of 1.2% TritonX-100 was added for full fluorescein release. […] See Supporting Information for the full curves, all of the data, and procedures.
HEK293 cells were cultured and maintained in DMEM high glucose (Dulbecco’s modified Eagle medium, Sigma Aldrich) medium supplemented with 10% FBS (Sigma Aldrich) and 1% penicillin/streptomycin. A549 cells were cultured and maintained in RPMI-1640 medium (Sigma Aldrich), supplemented with 10% FBS (Sigma Aldrich) and 1% penicillin/streptomycin. The cells were handled and subcultured according to the manufacturer instructions. Cells were incubated in a humidified incubator at 37 °C in the presence of 5% CO2.
Assays on HEK293, A549 cells were performed as described earlier.[74] […]

Structure (SMILES): CC(C)C[C@H](NC(=O)CN(CCCCN)C(=O)[C@H](CC(C)C)NC(=O)[C@H](CC(C)C)NC(=O)[C@H](CCCCN)NC(=O)[C@H](CC(C)C)NC(=O)[C@H](CC(C)C)NC(=O)[C@H](CCCCN)NC(=O)CNCCCCN)C(=O)N[C@@H](CC(C)C)C(=O)N(CC(N)=O)CC(C)C [EB2, kKLLKLLkLLl] (H-[Nlys]KLLKLL[Nlys]LL[Nleu]-NH2)
- MIC A. baumannii ATCC19606, full MH at pH 7.4 ([1]; ATCC19606, 4 h, pH 7.4): >32 ug/mL
- MIC A. baumannii ATCC19606 […] 7.4 ([1]; Table S2, […] MH, pH 7.4): 16 µg/mL (≈ 12.1 µM)
- MIC A. baumannii ATCC19606 […] 8.5 ([1]; Table S2, […] MH, pH 8.5): 8 µg/mL (≈ 6.05 µM)
- MIC A. baumannii ATCC19606 Full MH 7.4 ([1]; Table S2, full MH, pH 7.4): > 32 µg/mL
- MIC A. baumannii ATCC19606 Full MH 8.5 ([1]; Table S2, full MH, pH 8.5): 32 µg/mL (≈ 24.2 µM)
- MIC K. pneumoniae NCTC418, full MH at pH 7.4 ([2]; NCTC418, 4 h, pH 7.4): >32 ug/mL
- MIC K. pneumoniae NCTC418, full MH at pH 8.5 ([2]; NCTC418, 4 h, pH 8.5): >32 ug/mL
- MIC K. pneumoniae NCTC418 […] 7.4 ([2]; Table S2, […] MH, pH 7.4): > 32 µg/mL
- MIC K. pneumoniae NCTC418 […] 8.5 ([2]; Table S2, […] MH, pH 8.5): > 32 µg/mL
- MIC K. pneumoniae NCTC418 Full MH 7.4 ([2]; Table S2, full MH, pH 7.4): > 32 µg/mL
- MIC K. pneumoniae NCTC418 Full MH 8.5 ([2]; Table S2, full MH, pH 8.5): > 32 µg/mL
- MIC E. coli W3110, […] MH at pH 7.4 ([3]; CSV, […] MH at pH 7.4): 4 ug/mL
- MIC E. coli W3110, full MH at pH 7.4 ([3]; CSV, full MH at pH 7.4): 32 ug/mL
- MIC E. coli W3110, full MH at pH 8.5 ([3]; CSV, full MH at pH 8.5): 32 ug/mL
- MIC E. coli W3110 […] 7.4 ([3]; Table S2, […] MH, pH 7.4): 4 µg/mL (≈ 3.03 µM)
- MIC E. coli W3110 […] 8.5 ([3]; Table S2, […] MH, pH 8.5): 2 µg/mL (≈ 1.51 µM)
- MIC E. coli W3110 Full MH 7.4 ([3]; Table S2, full MH, pH 7.4): 32 µg/mL (≈ 24.2 µM)
- MIC E. coli W3110 Full MH 8.5 ([3]; Table S2, full MH, pH 8.5): 32 µg/mL (≈ 24.2 µM)
- MIC P. aeruginosa PA14 4.18, […] MH at pH 8.5 ([4]; CSV): 6 ug/mL
- MIC P. aeruginosa PA14 4.18 ([4]; Table S3): 4 to 8 µg/mL
- MIC P. aeruginosa PAO1, full MH at pH 7.4 ([5]; PAO1, 4 h, pH 7.4): 32 ug/mL
- MIC P. aeruginosa PAO1, full MH at pH 8.5 ([5]; PAO1, 4 h, pH 8.5): 16 ug/mL
- MIC P. aeruginosa PAO1 […] 7.4 ([5]; Table S2, […] MH, pH 7.4): 16 µg/mL (≈ 12.1 µM)
- MIC P. aeruginosa PAO1 […] 8.5 ([5]; Table S2, […] MH, pH 8.5): 8 µg/mL (≈ 6.05 µM)
- MIC P. aeruginosa PAO1 Full MH 7.4 ([5]; Table S2, full MH, pH 7.4): 32 µg/mL (≈ 24.2 µM)
- MIC P. aeruginosa PAO1 Full MH 8.5 ([5]; Table S2, full MH, pH 8.5): 16 µg/mL (≈ 12.1 µM)
- MIC P. aeruginosa PA14 4.13, […] MH at pH 8.5 [6]: 4 ug/mL
- MIC P. aeruginosa PA14 2P4, […] MH at pH 8.5 [7]: 8 ug/mL
- MIC S. aureus COL (MRSA), full MH at pH 7.4 ([8]; COL, 4 h, pH 7.4): >32 ug/mL
- MIC S. aureus COL (MRSA), full MH at pH 8.5 ([8]; COL, 4 h, pH 8.5): 32 ug/mL
- MIC S. aureus COL (MRSA) […] 7.4 ([8]; Table S2, […] MH, pH 7.4): 32 µg/mL (≈ 24.2 µM)
- MIC S. aureus COL (MRSA) […] 8.5 ([8]; Table S2, […] MH, pH 8.5): 2 µg/mL (≈ 1.51 µM)
- MIC S. aureus COL (MRSA) Full MH 7.4 ([8]; Table S2, full MH, pH 7.4): > 32 µg/mL
- MIC S. aureus COL (MRSA) Full MH 8.5 ([8]; Table S2, full MH, pH 8.5): 32 µg/mL (≈ 24.2 µM)
- MIC P. aeruginosa PA14 [9]: 2 to 4 µg/mL
- MIC S. aureus Newman [10]: 2 to 4 µg/mL
- CD %α with 5 mM DPC ([11]; DichroWeb, Contin-LL): 11%
- CD %α with 20% TFE ([11]; DichroWeb, Contin-LL): 15%
- CD %α with 5 mM DPC ([11]; Table S2): 11%
- CD %α with 20% TFE ([11]; Table S2): 15%
- Hemolysis [12]: none of them showed any measurable hemolysis
- MHC [12]: >2000 µg/mL
- IC50 [13]: > 200 µM
